Data published in publication PMC3813431 (Aquatic toxicology (Amsterdam, Netherlands), 2013).
Entries after “also recorded” stand apart in the source; their conditions may differ. Like-named read-outs stand apart in the source and are kept apart here. Marks after values point to notes of the source that are not given here.

How the values were obtained:
[1] = molecular target: ryanodine receptor, isoform 1 (RyR1) (Oncorhynchus mykiss, UniProt A0A8C7UX14); assay type: binding, rainbow trout (Oncorhynchus mykiss); conditions: for Comparison (Ratio): Fish RPF compared to Mammal RPF; for Log-Probit Slope / Bmax / Bmax (pmol/mg): Mean ± SEM; for Bmax / Bmax (pmol/mg): maximal level of [3H]Ry binding at saturation; for Fish RPF: relative potency factor, Q20 relative to PCB 95; for activity toward RyR1: rainbow trout preparation
Sequence of ryanodine receptor, isoform 1 (RyR1) (A0A8C7UX14 1-5031): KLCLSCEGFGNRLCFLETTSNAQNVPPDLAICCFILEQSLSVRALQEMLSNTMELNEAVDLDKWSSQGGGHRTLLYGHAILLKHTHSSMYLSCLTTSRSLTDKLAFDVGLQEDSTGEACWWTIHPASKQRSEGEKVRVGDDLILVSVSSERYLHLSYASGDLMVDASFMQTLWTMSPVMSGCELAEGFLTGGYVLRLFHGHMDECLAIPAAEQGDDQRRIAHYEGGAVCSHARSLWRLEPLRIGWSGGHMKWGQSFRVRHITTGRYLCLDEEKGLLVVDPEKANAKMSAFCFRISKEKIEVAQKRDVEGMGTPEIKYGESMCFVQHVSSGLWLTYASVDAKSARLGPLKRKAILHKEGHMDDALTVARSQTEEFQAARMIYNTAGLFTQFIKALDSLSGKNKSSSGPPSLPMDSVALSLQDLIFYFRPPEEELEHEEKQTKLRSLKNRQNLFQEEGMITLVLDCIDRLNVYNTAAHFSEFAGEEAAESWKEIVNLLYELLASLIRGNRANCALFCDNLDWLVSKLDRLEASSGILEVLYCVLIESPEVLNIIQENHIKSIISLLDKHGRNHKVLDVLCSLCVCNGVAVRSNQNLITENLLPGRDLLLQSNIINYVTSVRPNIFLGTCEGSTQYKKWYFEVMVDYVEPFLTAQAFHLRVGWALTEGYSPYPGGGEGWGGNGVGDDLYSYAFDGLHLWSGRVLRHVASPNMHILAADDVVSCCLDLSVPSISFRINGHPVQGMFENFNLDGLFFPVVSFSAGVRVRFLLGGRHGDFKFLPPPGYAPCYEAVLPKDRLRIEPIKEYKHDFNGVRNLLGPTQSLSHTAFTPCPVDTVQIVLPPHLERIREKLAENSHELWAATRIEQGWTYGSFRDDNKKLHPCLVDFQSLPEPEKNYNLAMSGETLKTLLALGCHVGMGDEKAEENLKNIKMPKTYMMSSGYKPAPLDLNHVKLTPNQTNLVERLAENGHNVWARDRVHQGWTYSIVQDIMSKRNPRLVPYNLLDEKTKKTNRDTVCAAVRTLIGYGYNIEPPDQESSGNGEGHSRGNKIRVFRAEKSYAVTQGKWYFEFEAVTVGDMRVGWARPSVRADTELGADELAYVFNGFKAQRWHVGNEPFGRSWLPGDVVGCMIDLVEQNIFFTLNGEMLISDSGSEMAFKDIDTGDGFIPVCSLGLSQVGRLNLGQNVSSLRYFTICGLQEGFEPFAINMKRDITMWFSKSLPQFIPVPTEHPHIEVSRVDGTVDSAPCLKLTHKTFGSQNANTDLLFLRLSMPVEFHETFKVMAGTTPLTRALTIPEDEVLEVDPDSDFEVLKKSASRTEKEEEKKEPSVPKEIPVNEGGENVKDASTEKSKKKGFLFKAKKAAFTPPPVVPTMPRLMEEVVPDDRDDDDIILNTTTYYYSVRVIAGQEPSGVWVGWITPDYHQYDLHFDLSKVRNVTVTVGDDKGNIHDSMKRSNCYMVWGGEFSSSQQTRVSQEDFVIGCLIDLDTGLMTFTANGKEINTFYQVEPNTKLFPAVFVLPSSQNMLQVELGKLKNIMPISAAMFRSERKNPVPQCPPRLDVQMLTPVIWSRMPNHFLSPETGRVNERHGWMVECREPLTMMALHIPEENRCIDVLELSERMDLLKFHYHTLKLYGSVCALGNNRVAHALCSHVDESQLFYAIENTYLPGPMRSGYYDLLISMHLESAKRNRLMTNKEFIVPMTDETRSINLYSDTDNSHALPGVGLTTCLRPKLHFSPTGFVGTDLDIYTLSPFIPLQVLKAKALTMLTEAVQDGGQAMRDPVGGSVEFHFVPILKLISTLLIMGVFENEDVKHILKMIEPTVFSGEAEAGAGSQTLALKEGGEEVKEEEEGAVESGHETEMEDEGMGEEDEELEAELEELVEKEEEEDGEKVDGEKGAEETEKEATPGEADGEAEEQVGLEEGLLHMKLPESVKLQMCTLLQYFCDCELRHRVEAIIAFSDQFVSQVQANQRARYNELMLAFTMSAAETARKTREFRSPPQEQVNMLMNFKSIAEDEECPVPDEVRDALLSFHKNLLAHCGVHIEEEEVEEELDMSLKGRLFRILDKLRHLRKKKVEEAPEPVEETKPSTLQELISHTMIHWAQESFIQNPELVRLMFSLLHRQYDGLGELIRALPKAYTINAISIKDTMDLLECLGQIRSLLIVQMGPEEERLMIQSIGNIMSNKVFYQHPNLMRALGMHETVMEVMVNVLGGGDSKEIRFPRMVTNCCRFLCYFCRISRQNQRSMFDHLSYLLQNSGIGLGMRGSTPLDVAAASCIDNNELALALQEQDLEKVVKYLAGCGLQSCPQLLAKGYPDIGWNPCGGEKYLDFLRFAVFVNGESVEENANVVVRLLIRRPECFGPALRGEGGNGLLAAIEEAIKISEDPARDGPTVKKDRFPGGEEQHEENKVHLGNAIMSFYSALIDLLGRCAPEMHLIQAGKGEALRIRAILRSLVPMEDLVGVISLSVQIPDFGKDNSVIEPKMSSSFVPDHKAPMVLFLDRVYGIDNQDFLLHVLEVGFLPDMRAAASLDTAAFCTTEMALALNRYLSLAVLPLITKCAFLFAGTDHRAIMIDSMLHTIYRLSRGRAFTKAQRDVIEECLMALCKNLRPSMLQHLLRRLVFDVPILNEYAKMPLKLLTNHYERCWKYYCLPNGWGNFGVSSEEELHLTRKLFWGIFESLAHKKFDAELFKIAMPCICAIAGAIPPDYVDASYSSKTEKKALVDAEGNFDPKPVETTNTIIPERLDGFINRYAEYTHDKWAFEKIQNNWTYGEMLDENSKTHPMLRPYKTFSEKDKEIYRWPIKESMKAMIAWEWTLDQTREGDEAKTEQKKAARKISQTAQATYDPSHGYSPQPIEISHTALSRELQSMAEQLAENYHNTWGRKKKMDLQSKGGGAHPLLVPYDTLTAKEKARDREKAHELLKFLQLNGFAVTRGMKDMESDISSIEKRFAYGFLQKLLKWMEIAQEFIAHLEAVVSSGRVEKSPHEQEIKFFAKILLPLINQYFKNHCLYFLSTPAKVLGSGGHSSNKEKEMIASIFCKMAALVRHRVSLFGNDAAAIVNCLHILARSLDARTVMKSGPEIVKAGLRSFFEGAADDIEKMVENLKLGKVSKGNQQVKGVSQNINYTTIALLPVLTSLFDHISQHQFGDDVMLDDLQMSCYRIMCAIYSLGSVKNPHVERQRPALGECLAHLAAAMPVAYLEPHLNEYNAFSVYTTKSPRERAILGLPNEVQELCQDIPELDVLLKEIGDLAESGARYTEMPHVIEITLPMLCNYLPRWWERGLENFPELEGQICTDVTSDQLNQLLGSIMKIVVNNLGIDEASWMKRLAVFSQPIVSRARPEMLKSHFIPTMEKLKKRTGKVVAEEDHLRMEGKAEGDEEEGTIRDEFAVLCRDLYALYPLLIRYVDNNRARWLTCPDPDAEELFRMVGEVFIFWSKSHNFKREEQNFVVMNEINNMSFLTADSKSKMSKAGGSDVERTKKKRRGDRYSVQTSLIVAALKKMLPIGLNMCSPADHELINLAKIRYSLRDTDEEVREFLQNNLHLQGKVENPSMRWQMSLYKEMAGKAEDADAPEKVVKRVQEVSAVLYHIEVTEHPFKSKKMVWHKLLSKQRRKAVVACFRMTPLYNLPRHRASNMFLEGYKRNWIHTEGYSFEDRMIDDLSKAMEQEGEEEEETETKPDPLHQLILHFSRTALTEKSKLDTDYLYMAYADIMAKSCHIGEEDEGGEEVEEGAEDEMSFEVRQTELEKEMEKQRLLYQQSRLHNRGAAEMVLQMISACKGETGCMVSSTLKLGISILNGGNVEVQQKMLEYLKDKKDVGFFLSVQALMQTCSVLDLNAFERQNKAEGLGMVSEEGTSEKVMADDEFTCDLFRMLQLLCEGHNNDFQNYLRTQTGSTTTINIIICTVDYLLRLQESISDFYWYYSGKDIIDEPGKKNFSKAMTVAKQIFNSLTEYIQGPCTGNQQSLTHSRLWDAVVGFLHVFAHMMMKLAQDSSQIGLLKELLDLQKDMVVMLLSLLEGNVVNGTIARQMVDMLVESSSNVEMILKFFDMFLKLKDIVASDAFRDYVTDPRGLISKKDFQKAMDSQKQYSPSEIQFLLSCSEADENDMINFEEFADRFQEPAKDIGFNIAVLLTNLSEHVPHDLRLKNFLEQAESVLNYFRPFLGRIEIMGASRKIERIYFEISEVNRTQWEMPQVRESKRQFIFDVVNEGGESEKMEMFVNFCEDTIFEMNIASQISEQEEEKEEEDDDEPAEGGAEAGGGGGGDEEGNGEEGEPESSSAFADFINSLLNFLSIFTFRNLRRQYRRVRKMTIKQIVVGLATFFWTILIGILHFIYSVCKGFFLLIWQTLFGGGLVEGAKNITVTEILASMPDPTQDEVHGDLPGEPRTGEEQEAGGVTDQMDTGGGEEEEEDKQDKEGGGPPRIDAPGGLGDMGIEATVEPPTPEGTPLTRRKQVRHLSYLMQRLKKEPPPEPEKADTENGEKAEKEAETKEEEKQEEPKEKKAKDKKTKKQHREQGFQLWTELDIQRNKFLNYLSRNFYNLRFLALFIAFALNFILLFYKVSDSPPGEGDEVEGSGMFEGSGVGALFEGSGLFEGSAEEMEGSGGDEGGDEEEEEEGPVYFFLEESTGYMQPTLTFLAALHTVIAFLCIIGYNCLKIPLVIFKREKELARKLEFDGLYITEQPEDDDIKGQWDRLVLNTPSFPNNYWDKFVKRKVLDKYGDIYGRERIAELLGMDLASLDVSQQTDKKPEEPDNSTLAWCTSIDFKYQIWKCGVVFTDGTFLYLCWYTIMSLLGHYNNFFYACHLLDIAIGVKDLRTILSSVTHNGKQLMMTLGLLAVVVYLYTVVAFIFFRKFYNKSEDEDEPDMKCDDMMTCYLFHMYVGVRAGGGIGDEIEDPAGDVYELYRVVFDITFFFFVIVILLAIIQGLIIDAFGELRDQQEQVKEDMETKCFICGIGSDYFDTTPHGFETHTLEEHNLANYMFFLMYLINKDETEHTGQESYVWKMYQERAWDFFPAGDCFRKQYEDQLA

RyR1 [2] = test: Mammalian RyR1 [3H]ryanodine binding; design: species or system rabbit; conditions: relative potency factor, EC2X relative to PCB 95; from literature EC2X values
RyR1 [3] = conditions: estimated from QSAR; ref Rayne and Forest 2010; cited from earlier work
RyR1 [4] = conditions: ref Pessah et al. 2006; cited from earlier work
[5] = linear regression of log-probit plot, (−) inactive
[6] = sigmoidal fit of enhanced [3H]Ry binding, PCB 0–20 μM, (−) inactive

Row | SMILES | EC50 ([1]; single compound) | Mammal RPF (RyR1 [2]) | Comparison (Ratio) [1] | Log-Probit Slope [1, 5] | Bmax ([1]; (−) inactive) | Fish RPF ([1]; (−) inactive) | EC50 [1, 6] | Mammal EC2X (μM) (RyR1 [3]) | Bmax (pmol/mg) ([1]; (−) inactive) | activity toward RyR1 [1] | Mammal EC2X (RyR1 [4]) | activity toward the RyR1 in mammals (RyR1 [4]) | receptor activity, % of baseline ([1]; at 20 μM (data not shown)) | Log-Probit Slope ([1]; parameter determined using activating concentrations only) | EC20 ([1]; read-out: Fish Normalized Q20 (μM)) | Emax ([1]; read-out: Maximum Response (% of Control))
1 | Brc1ccc(Oc2cc(Br)ccc2Br)c(Br)c1 [PBDE49] | 3480 nM |  |  |  |  |  |  |  |  |  |  |  |  |  |  | 
2 | Clc1cccc(-c2cccc(Cl)c2Cl)c1 [PCB 20] |  | 0.11 | 0.05 | 2.83 ± 0.10 | 0.34 ± 0.02 pmol/mg | 0.01 | 1800 nM | 2 ^c μM |  |  |  |  |  |  |  | 
3 | Clc1ccc(-c2ccc(Cl)cc2Cl)cc1 [PCB 28] |  | 0.04 |  |  |  |  | > 20000 nM | 5 ^c μM | - | inactive |  |  |  |  |  | 
4 | Clc1ccc(Cl)c(-c2cccc(Cl)c2Cl)c1 [PCB 44] |  | 0.28 | 0.29 | 4.20 ± 0.10 | 0.50 ± 0.03 pmol/mg | 0.08 | 4500 nM | 0.8 ^c μM |  |  |  |  |  |  |  | 
5 | Clc1ccc(Cl)c(-c2cc(Cl)ccc2Cl)c1 [PCB 52] |  | 0.45 | 0.69 | 2.66 ± 0.09 | 0.77 ± 0.05 pmol/mg | 0.31 | 2940 nM |  |  |  | 0.49 µM |  |  |  |  | 
6 | Clc1ccc(-c2ccc(Cl)c(Cl)c2)c(Cl)c1 [PCB 66] |  | 0.09 | 0.44 | 2.93 ± 0.00 | 0.42 ± 0.02 pmol/mg | 0.04 | 1160 nM |  |  |  | 2.38 µM |  |  |  |  | 
7 | Clc1ccc(-c2ccc(Cl)c(Cl)c2)cc1Cl [PCB 77] |  | 0.04 |  |  |  |  | > 20000 nM |  | - | negligible impact; also recorded: inactive | 5.00 µM |  |  |  |  | 
8 | Clc1ccc(Cl)c(-c2c(Cl)ccc(Cl)c2Cl)c1 [PCB 95] |  | 1.00 | 1.00 | 2.15 ± 0.05 | 0.95 ± 0.04 pmol/mg | 1.00 | 1060 nM |  |  |  | 0.22 µM |  |  |  |  | 
9 | Clc1ccc(-c2cc(Cl)c(Cl)cc2Cl)c(Cl)c1 [PCB 99] |  | 0.08 | 0.35 | 2.30 ± 0.05 | 0.61 ± 0.03 pmol/mg | 0.03 | 3590 nM |  |  |  | 2.80 µM |  |  |  |  | 
10 | Clc1ccc(Cl)c(-c2cc(Cl)c(Cl)cc2Cl)c1 [PCB 101] |  | 0.26 | 1.64 | 1.83 ± 0.04 | 0.64 ± 0.04 pmol/mg | 0.42 | 1980 nM |  |  |  | 0.86 µM |  |  |  |  | 
11 | Clc1ccc(-c2c(Cl)ccc(Cl)c2Cl)cc1Cl [PCB 110] |  | 0.19 |  | 2.60 ± 0.01 | 0.48 ± 0.03 pmol/mg |  | 1080 nM |  |  |  | 1.13 µM |  |  |  |  | 
12 | Clc1ccc(-c2cc(Cl)c(Cl)c(Cl)c2)cc1Cl [PCB 126] |  |  |  |  |  |  |  |  |  |  |  | inactive |  |  |  | 
13 | Clc1ccc(-c2c(Cl)ccc(Cl)c2Cl)c(Cl)c1Cl [PCB 132] |  | 0.24 | 0.10 |  | 0.46 ± 0.02 pmol/mg | 0.02 | 1320 nM |  |  |  | 0.91 µM |  | 88 % of baseline | 1.70 ± 0.04 ^a |  | 
14 | Clc1ccc(Cl)c(-c2c(Cl)ccc(Cl)c2Cl)c1Cl [PCB 136] |  | 0.96 | 0.63 | 3.16 ± 0.14 | 0.96 ± 0.04 pmol/mg | 0.60 | 1300 nM |  |  |  | 0.23 µM |  |  |  |  | 
15 | Clc1cc(Cl)c(-c2c(Cl)ccc(Cl)c2Cl)cc1Cl [PCB 149] |  | 0.67 | 1.45 | 3.40 ± 0.08 | 0.76 ± 0.04 pmol/mg | 0.96 | 810 nM |  |  |  | 0.33 µM |  |  |  |  | 
16 | Clc1ccc(Cl)c(-c2c(Cl)c(Cl)cc(Cl)c2Cl)c1 [PCB 151] |  | 0.44 | 0.45 | 1.91 ± 0.04 | 0.77 ± 0.04 pmol/mg | 0.20 | 2760 nM |  |  |  | 0.50 µM |  |  |  |  | 
17 | Clc1cc(Cl)c(-c2cc(Cl)c(Cl)cc2Cl)cc1Cl [PCB 153] |  | 0.18 | 0.41 | 2.25 ± 0.05 | 0.54 ± 0.02 pmol/mg | 0.07 | 5750 nM |  |  |  | 1.21 µM |  |  |  |  | 
18 | Clc1ccc(-c2cc(Cl)c(Cl)c(Cl)c2Cl)c(Cl)c1Cl [PCB 170] |  | 0.30 |  |  |  |  | > 20000 nM |  | - | inactive | 0.73 µM |  |  |  |  | 
19 | Clc1cc(Cl)c(-c2cc(Cl)c(Cl)c(Cl)c2Cl)cc1Cl [PCB 180] |  | 0.23 | 0.17 | 1.84 ± 0.06 | 0.40 ± 0.03 pmol/mg |  |  |  |  |  | 0.96 µM |  |  |  | 11.2 µM | 132 ± 9.87%
20 | Clc1cc(Cl)c(-c2c(Cl)cc(Cl)c(Cl)c2Cl)cc1Cl [PCB 183] |  | 0.40 | 0.16 | 1.58 ± 0.09 | 0.42 ± 0.03 pmol/mg | 0.06 | 1820 nM |  |  |  | 0.55 µM |  |  |  |  | 
21 | Clc1cc(Cl)c(-c2c(Cl)c(Cl)cc(Cl)c2Cl)cc1Cl [PCB 187] |  | 0.38 | 0.16 | 3.05 ± 0.07 | 0.45 ± 0.02 pmol/mg | 0.06 | 1300 nM |  |  |  | 0.58 µM |  |  |  |  | 
22 | Clc1cc(-c2cc(Cl)c(Cl)c(Cl)c2Cl)c(Cl)c(Cl)c1Cl [PCB 194] |  | 0.44 | 0.09 | 8.94 ± 0.34 | 0.36 ± 0.02 pmol/mg | 0.04 | 1270 nM | 0.5 ^c μM |  |  |  |  |  |  |  | 
